Test results published in paper PMC12333011, “Selective Modulation of Trk Receptors by Cyclo-Organopeptides” (ACS Chemical Neuroscience, 2025).
Square brackets hold non-standard residues; d marks the D form.

Tests used:
[1] = test system: HeLa-TrkA cells; settings: for activity class in cell survival assay, TrkA: HeLa-TrkA cells, 50 μM compound, with or without 0.2 nM NGF, 48-72 h
Description: (§1) Throughout, compounds were tested at 50 μM in TrkA- and C-expressing cells and 0.4 μM in TrkB-expressing cells. […] Samples were tested for promoting cell survival in the absence of NTs (agonism) or in the presence of suboptimal concentrations of NTs whose loops they were designed to mimic (NT potentiation).
(§2) Cells were seeded at a density of 2000 cells per well. Cells were incubated in complete media for 24
(§3) hours. The media was aspirated, the cells washed twice with Dulbecco’s Phosphate Buffered Saline,
(§4) and the media was replaced with serum-free media to induce apoptosis unless otherwise halted.
(§5) Compound was added to cells (50 μM compound to HeLa-TrkA and NIH3T3-TrkC cells, 0.4 μM for
(§6) HEK293-TrkB) alone (agonism) or in the presence of suboptimal neurotrophin (~25 to 30% survival,
(§7) 0.2 nM NGF, 0.6 nM BDNF, or 0.2 nM NT3 for TrkA, B, or C expressing cells respectively). Cell
(§8) survival was measured via alamarBlue assay after 48-72 hours to determine cell viability. Data was
(§9) normalized to DMSO treatment (0%) and optimal neurotrophin (100%, 2.0 nM NGF, 1.0 nM BDNF,
(§10) 2.0 nM NT-3 for TrkA, B, or C expressing cells, respectively).
HeLa-TrkA cells were treated with 50 μM compound with or without suboptimal (0.2 nM) levels of
NGF and cell survival was analyzed after 48-72 hours by the alamarBlue assay. Data was
normalized to DMSO (0%) and 2.0 nM NGF (100%). Data is represented as the average of 3-6
(§11) points +/- standard deviation from the mean.
(§12) with a serial dilution of the compound in serum free media with or without suboptimal neurotrophin
(§13) and incubated for 48-72 hours, after which an alamarBlue assay was done to determine cell viability.
(§14) Cell viability was normalized to DMSO (0%) and optimal neurotrophin (100%), depending on cell type.
(§15) EC50 was calculated in GraphPad Prism 10.2 using the dose response “[agonist] vs response –
(§16) Variable slope (four parameters)” function. Data is presented as the mean +/- standard deviation of
an experiment with 3-6 replicates.

[2] = test system: dry eye disease (desiccating stress to the eye); settings: summarised from published work, ref number not given, cited from earlier work
Description: All of the data for these in vivo assays is now published , and will only be summarized here. […] This negative result is surprising because D3 is a potentiator of NGF in TrkA transfectants.

[3] = test system: NIH3T3-TrkC cells; settings: for activity class in cell survival assay, TrkC: NIH3T3-TrkC cells, 50 μM compound, with or without 0.2 nM NT-3, 48-72 h
Description: as §1
Cell Survival Compound Screen
as §2, §3, §4, §5, §6, §7, §8, §9, §10
Cell Survival of NIH3T3-TrkC Cells
NIH3T3-TrkC cells were treated with 50 μM compound with or without suboptimal (0.2 nM) levels of
NT-3 and cell survival was analyzed after 48-72 hours by the alamarBlue assay. Data was
normalized to DMSO (0%) and 2.0 nM NT-3 (100%). Data is represented as the average of 3-6
as §11
Cell Survival Dose Response
as §12, §13, §14, §15, §16
an experiment with 3-6 replicates.

[4] = test system: HEK293-TrkB cells; settings: for activity class in cell survival assay, TrkB: HEK293-TrkB cells, 0.4 μM compound, with or without 0.6 nM BDNF, 48-72 h; for shape of dose-response curve, cell survival: HEK293-TrkB cells with 0.6 nM BDNF (suboptimal), EC50s could not be determined
Description: as §1
Cell Survival Compound Screen
as §2, §3, §4, §5, §6, §7, §8, §9, §10
Cell Survival of HEK293-TrkB Cells
HEK293-TrkB cells were treated with 0.4 μM compound with or without suboptimal (0.6 nM) levels of
BDNF and cell survival was analyzed after 48-72 hours by the alamarBlue assay. Data was
normalized to DMSO (0%) and 1.0 nM BDNF (100%). Data is represented as the average of 3-6
as §11
Cell Survival Dose Response
The most promising compounds from the screen were selected for each cell line. Cells were treated
as §12, §13, §14, §15, §16
an experiment with 3-6 replicates.

Molecule | EC50 [1] | activity class in cell survival assay, TrkA [1] | activity class in cell survival assay, TrkC [3] | corneal barrier function ([2]; murine dry eye disease model) | activity class in cell survival assay, TrkB [4] | shape of dose-response curve, cell survival [4] | also measured
CC[C@H](C)[C@@H]1NC(=O)[C@H](CC(N)=O)NC(=O)[C@H](C(C)C)n2cc(nn2)C[C@@H](C(=O)N[C@@H](CCCCNS(=O)(=O)c2cccc3c(N(C)C)cccc23)C(=O)O)NC(=O)[C@H](Cc2ccccc2)NC(=O)[C@H](C(C)C)NC(=O)[C@H](CO)NC(=O)[C@H](CC(N)=O)NC(=O)[C@H](CC(N)=O)NC1=O [1a(ii)ext] | 7.1 µM | selective TrkA agonists |  |  |  |  | 
CC[C@H](C)[C@@H]1NC(=O)[C@@H]2C[C@@H](CN2)NC(=O)[C@H](CO)NC(=O)[C@H](CC(N)=O)NC(=O)[C@H](CC(N)=O)NC1=O [3a(ii)] | 10.2 µM | selective TrkA agonists |  |  |  |  | activity in the preliminary in vivo screen ([2]; murine dry eye disease model): no significant activity
CC[C@H](C)[C@@H]1NC(=O)[C@H](CC(=O)O)NC(=O)[C@@H]2C[C@@H](CN2)NC(=O)CNC(=O)[C@H](CCCNC(=N)N)NC1=O [3c(i)] |  | agonist of TrkA | potentiator of BDNF and NT-3 | increased corneal barrier function | potentiator of BDNF and NT-3 |  | maximum activity, % survival compared with that imparted by NT-3 ([3]; 24 h): ~52%; EC50 [4]: 1 µM; maximum activity, % of the maximum survival imparted by BDNF ([4]; 24 h): ~53%
M DSKKR (sidechain bridge or staple) [1b(iii)] |  |  |  |  | BDNF potentiators | bell-shaped dose–response curve | 
cyclo(DSKK) [3b(iii)] |  |  |  |  | BDNF potentiators | bell-shaped dose–response curve | 
cyclo([dN]-Lys-Val) [4c(iii)nKV] |  |  | selectively modulate cell survival through the TrkC receptors | increased corneal barrier function |  |  | EC50 ([3]; read-out: EC50, cell survival of TrkC cells with suboptimal NT-3 (unit inferred), NIH3T3-TrkC cells with 0.2 nM NT-3, sigmoidal dose response, 48-72 h, alamarBlue): 8.7 µM; NFκB activation (marker of inflammation) ([2]; biochemical experiments in the dry eye studies): decreases NFκB activation; conjunctival goblet cell densities ([2]; murine dry eye disease model, further studies): increase conjunctival goblet cell densities
